The values below come from patent EP1661584A1, “Use of conjugates of amatoxins and phallotoxins with macromolecules for cancer and inflammation therapy” (Faulstich, Heinz, Dr., priority 2004, dated 2006).

One may read the pKd as the Kd on a negative log10 scale, so that one unit is a factor of ten.

pKd: −log10 of the molar value.

For experiment [1], the target named is DNA-dependent RNA polymerase II (Homo sapiens, UniProt P24928+P30876). The note with it: complex between amanitin and RNA polymerase II; cited from earlier work.
Another experiment concerns actin. Kind of experiment: actin binding. The source says: In all cases the macromolecular conjugates were distinctly more toxic to tumor cells (>1000) than the native toxins. Of high importance for this cytotoxic activity is the presence of a disulfide group in the linker moiety between toxin and macromolecule. After uptake into the tumor cells the disulfide group is cleaved by reduction releasing thiopropionyl-aminophalloidin or thiopropionyl-aminophallacidin into cytoplasm.

In the case of amanitin, the pKd in experiment [1] was 8.52.

thiopropionyl-aminophalloidin: the “actin binding compared with phalloidin” value in the experiment with actin was “as tightly as phalloidin itself”.
